Data: US10716797B2, “Steroid alkaloids and compositions and kits thereof” (priority 2013, dated 2020)
Read-outs that look alike come from different tables or passages of the source.

Key:
MRSA USA100 = test: MIC by microdilution, alone or in combination, MRSA USA100; assay type: cell-based, Staphylococcus aureus; conditions: agent used alone
Experimental: (§1) Method. The minimal inhibitory concentrations (MICs), (i.e. lowest concentration of an antimicrobial that will inhibit the visible growth of a microorganism after incubation), of test compounds were determined against the normal or SCV strains of bacterial species from the Firmicutes phylum. Briefly, MICs were determined using the microdilution method in 96-well plates (Clinical and Laboratory Standards Institute (CLSI), 2011). Bacteria were inoculated at ˜10^5-10^6 CFU/mL and incubated at 35° C. for 20 h (normal strains) or 48 h (SCVs) in brain heart infusion (BHI) broth in order to allow SCVs to reach maximal growth as previously described (Mitchell et al., 2012). Then OD595 nm was read on a microplate reader. […] In this example the range of compound concentrations tested was 0.03 to 64 μg/ml using doubling increments. Strain Staphylococcus aureus NewbouldΔhemB (hemB) was also used in the experiments and is a laboratory-derived stable SCV created by the insertion of the macrolide resistance gene ermA in the hemB gene of this strain to create the SCV phenotype (defective electron transport chain and respiratory deficiency) through inactivation of hemin biosynthesis (Brouillette et al., 2004).
(§2) In the present Example the range of compound concentrations tested, using doubling increments, was 0.03 to 64 μg/ml for Compound 14 and up to 1024 μg/ml for gentamicin (GEN), kanamycin (KAN) and cefalexin (CEF) when these compounds were used alone. Compound 14 (Cpd 14) was used at a fixed concentration of 4 μg/ml when added to other antibiotics. The combination of CEF and KAN was used in a 3:2 ratio and doubling increments were used to test the antibacterial activity against MRSA in the absence or presence of Compound 14.

MRSA COL = test: MIC by microdilution, alone or in combination, MRSA COL; assay type: cell-based, Staphylococcus aureus; conditions: agent used alone
Experimental: as §1, §2

MRSA USA300 = test: MIC by microdilution, alone or in combination, MRSA USA300; assay type: cell-based, Staphylococcus aureus; conditions: agent used alone
Experimental: as §1, §2

[1] = test system: Staphylococcus aureus ATCC 29213; test: MIC by microdilution, compound alone or in combination with an aminoglycoside; assay type: cell-based; conditions: for MIC of aminoglycoside against S. aureus ATCC 29213 in combination with Compound 14: Compound 14 used at 4 μg/mL; for Potentiation fold with Compound 14: MIC aminoglycoside alone / MIC with Compound 14 at 4 μg/mL; for MIC: Staphylococcus aureus, ATCC29213, 20 h; for MIC vs ATCC29213: hydrochloride; for Combination MIC vs ATCC29213 (MIC of gentamicin in combination with the compound): MIC of gentamicin alone 0.5 μg/mL; for potentiation / synergy with aminoglycoside (gentamicin) in words: S. aureus ATCC 29213
Experimental: as §1
The various antibacterial activities of the test compounds against Staphylococcus aureus ATCC 29213, alone or in combination with gentamicin, and alone against the SCV strain hemB are reported in Table 1.

S. aureus hemB (SaR1) = test: MIC against tomatidine-resistant SCV mutant SaR1; assay type: cell-based, Staphylococcus aureus; conditions: tomatidine-resistant mutant SaR1
Experimental: (§3) At each passage, using a microdilution method in 96-well microplates, S. aureus hemB was inoculated at ˜10^5-10^6 CFU/ml and incubated at 35° C. for 48 h. The range of tomatidine concentrations tested was 0.03 to 64 μg/ml using doubling increments. The concentration of gentamicin was fixed at 4 μg/mL when it was used in combination with tomatidine. At each passage, the minimal inhibitory concentrations (MICs) (i.e. lowest concentration of an antimicrobial that inhibits the visible growth of bacteria), of tomatidine was determined. The bacteria used as inoculum for the next passage were from the well preceeding the well showing the MIC (i.e. the well containing half the MIC). At each passage, the population of bacteria serving as the inoculum for the next passage was spread on BHI agar plates and three isolated colonies were collected and frozen until used for whole-genome sequencing.

[2] = test system: S. aureus SCV strain NewbouldΔhemB; test: MIC by microdilution against SCV strain; assay type: cell-based, Staphylococcus aureus; conditions: for Activity of the compounds against the SCV strain (class) / MIC vs SCV: compound tested alone, strain NewbouldΔhemB
Experimental: as §1, with “2004). […]” for “2004).”

S. aureus hemB (SaR2) = test: MIC against tomatidine-resistant SCV mutant SaR2; assay type: cell-based, Staphylococcus aureus; conditions: tomatidine-resistant mutant SaR2
Experimental: as §3

[3] = test system: Listeria monocytogenes (strain ATCC 13932); test: Time-kill experiments, Listeria monocytogenes; assay type: cell-based
Experimental: Time-kill experiments were performed in order to determine whether the effect of test compounds or the combination with an aminoglycoside on Listeria monocytogenes (strain ATCC 13932) is bacteriostatic (prevents growth) or bactericidal (kills cells).
At several time points during growth at 35° C. (225 RPM), bacteria were sampled, serially diluted and plated on Brain Hearth Infusion agar (BHIA) for colony-forming unit (CFU) determinations (i.e., viable bacterial counts). Plates were incubated for 24 h at 35° C. It represents the results of three independent experiments.

[4] = test system: methicillin-resistant Staphylococcus aureus (MRSA) strains; test: MIC against MRSA strains; assay type: cell-based; conditions: Staphylococcus aureus, MRSA, used alone; tested MRSA strains (kanamycin: two of the strains)
Experimental: as §1, §2

[5] = Staphylococcus aureus, read-out: MIC
[6] = read-out: MIC of aminoglycoside against S. aureus ATCC 29213, aminoglycoside alone
[7] = S. aureus hemB (SCV strain NewbouldΔhemB)
[8] = MIC gentamicin alone / MIC gentamicin with compound at 8 μg/mL
[9] = Staphylococcus aureus, read-out: MIC vs SCV
[10] = compound tested alone, read-out: MIC vs ATCC29213

Molecule: NC[C@H]1O[C@H](O[C@H]2[C@H](O)[C@@H](O[C@H]3O[C@H](CO)[C@@H](O)[C@H](N)[C@H]3O)[C@H](N)C[C@@H]2N)[C@H](O)[C@@H](O)[C@@H]1O [Kanamycin, kanamycin, reference compound]
- MIC (MRSA USA100; [5]): 256 µg/mL
- MIC (MRSA COL; [5]): 4 µg/mL
- MIC (MRSA USA300; [5]): > 1020 µg/mL
- MIC of aminoglycoside against S. aureus ATCC 29213 in combination with Compound 14 [1]: 0.25 µg/mL
- Potentiation fold with Compound 14 [1]: 16 fold
- MIC [1, 6]: 4 µg/mL

Molecule: gentamicin [reference compound]
- MIC (MRSA USA100): 0.5 µg/mL
- MIC (MRSA COL): 0.25 µg/mL
- MIC (S. aureus hemB (SaR1)): 4 to 8 µg/mL
- MIC (MRSA USA300): 0.5 µg/mL
- MIC [2, 7]: 4 to 8 µg/mL
- MIC (S. aureus hemB (SaR2)): 16 µg/mL
- MIC of aminoglycoside against S. aureus ATCC 29213, aminoglycoside alone ([1]; aminoglycoside alone): 0.5 µg/mL

Molecule: [H]/N=C(/N)N[C@H]1[C@H](O)[C@@H](O)[C@H](O[C@@H]2O[C@@H](C)[C@](O)(C=O)[C@H]2O[C@@H]2O[C@@H](CO)[C@H](O)[C@@H](O)[C@@H]2NC)[C@@H](N/C(N)=N\[H])[C@@H]1O [Streptomycin, reference compound]
- MIC of aminoglycoside against S. aureus ATCC 29213 in combination with Compound 14 [1]: 1 µg/mL
- Potentiation fold with Compound 14 [1]: 4-8 fold
- MIC [1, 6]: 4 to 8 µg/mL

Molecule: Tomatidine hydrochloride [Compound 3, reference compound]
- MIC (S. aureus hemB (SaR1)): >32 µg/mL
- MIC [2, 7]: 0.0625 µg/mL
- Activity of the compounds against the SCV strain (class) [2]: High (MIC = 0.06-0.25 μg/mL: high activity)
- MIC vs SCV [2]: 0.06 µg/mL
- MIC (S. aureus hemB (SaR2)): >32 µg/mL
- effect in time-kill in combination with gentamicin ([3]; 8 μg/ml with 2 μg/ml gentamicin): not seen
- effect on growth in time-kill (CFU) ([3]; used alone at 8 μg/ml): does not affect the growth
- MIC vs ATCC29213 ([1]; compound tested alone): >64 µg/mL
- MIC vs ATCC29213 ([1]; compound tested alone, listed as tomatidine hydrochloride salt): > 64 µg/mL
- potentiation activity with gentamicin in words ([1]; compound used at 8 μg/mL): High
- Combination MIC vs ATCC29213 (MIC of gentamicin in combination with the compound) ([1]; compound used at 8 μg/mL): 0.06

Molecule: CC1=C(C(=O)O)N2C(=O)[C@@H](NC(=O)[C@H](N)c3ccccc3)[C@H]2SC1 [Cefalexin, cefalexin]
- MIC (MRSA USA100; [5]): 256 µg/mL
- MIC (MRSA COL; [5]): 256 µg/mL
- MIC [4]: 256 µg/mL
- MIC (MRSA USA300; [5]): 256 µg/mL

Molecule: C[C@H]1CC[C@]2(NC1)O[C@H]1C[C@H]3[C@@H]4CC[C@H]5CC(NCCCCN)CC[C@]5(C)[C@H]4CC[C@]3(C)[C@H]1[C@@H]2C.Cl.Cl.Cl (stereo partly shown) [Compound 16, 3-(N-aminobutyl)-aminotomatidine hydrochloride]
- Activity of the compounds against the SCV strain (class) [2]: Moderate (MIC = 0.5-4 μg/mL: moderate activity)
- MIC vs SCV [2]: 0.5 µg/mL
- potentiaton fold with gentamicin ([1]; MIC gentamicin alone / MIC gentamicin with compound at 4 μg/mL): 4-8 x
- potentiation / synergy with aminoglycoside (gentamicin) in words [1]: retain the ability to potentiate
- activity vs ATCC29213 in words ([1]; compound tested alone): Active
- MIC vs ATCC29213 ([1]; compound tested alone): 16 µg/mL
- potentiation activity with gentamicin in words ([1]; compound used at 4 μg/mL): Moderate-high
- Combination MIC vs ATCC29213 (MIC of gentamicin in combination with the compound) ([1]; compound used at 4 μg/mL): 0.06-0.12

Molecule: NC[C@H]1O[C@H](O[C@H]2[C@H](O)[C@@H](O[C@H]3O[C@H](CO)[C@@H](O)[C@H](N)[C@H]3O)[C@H](N)C[C@@H]2N)[C@H](N)C[C@@H]1O [Tobramycin, reference compound]
- MIC of aminoglycoside against S. aureus ATCC 29213 in combination with Compound 14 [1]: 0.125 µg/mL
- Potentiation fold with Compound 14 [1]: 8 fold
- MIC [1, 6]: 1 µg/mL

Molecule: C[C@H]1CC[C@]2(NC1)O[C@H]1C[C@H]3[C@@H]4CC[C@H]5CC(NCCCCCCN)CC[C@]5(C)[C@H]4CC[C@]3(C)[C@H]1[C@@H]2C.Cl.Cl.Cl (stereo partly shown) [Compound 18, 3-(N-aminohexyl)-aminotomatidine hydrochloride]
- Activity of the compounds against the SCV strain (class) [2]: Moderate (MIC = 0.5-4 μg/mL: moderate activity)
- MIC vs SCV [2]: 1 µg/mL
- potentiaton fold with gentamicin [1, 8]: 2-4 x
- potentiation activity with gentamicin in words ([1]; compound used at 8 μg/mL): Moderate
- Combination MIC vs ATCC29213 (MIC of gentamicin in combination with the compound) ([1]; compound used at 8 μg/mL): 0.12-0.25

Molecule: NCC[C@H](O)C(=O)N[C@@H]1C[C@H](N)[C@@H](O[C@H]2O[C@H](CN)[C@@H](O)[C@H](O)[C@H]2O)[C@H](O)[C@H]1O[C@H]1O[C@H](CO)[C@@H](O)[C@H](N)[C@H]1O [Amikacin, reference compound]
- MIC of aminoglycoside against S. aureus ATCC 29213 in combination with Compound 14 [1]: 0.25 µg/mL
- Potentiation fold with Compound 14 [1]: 16 fold
- MIC [1, 6]: 4 µg/mL

Molecule: CC(C)CCNC(C)[C@H]1CC[C@H]2[C@@H]3CC[C@H]4C[C@@H](O)CC[C@]4(C)[C@H]3CC[C@]12C.Cl (mixture of isomers) [Compound 50, 3β-Hydroxy-20-isopentylamino-5α-pregnane hydrochloride]
- MIC [2, 9]: > 8 µg/mL
- Activity of the compounds against the SCV strain (class) [2]: Low (MIC = ≥8 μg/mL: low activity)
- potentiaton fold with gentamicin [1, 8]: 4 x
- potentiation / synergy with aminoglycoside (gentamicin) in words [1]: strong or moderate synergy
- MIC [1, 10]: > 64 µg/mL
- potentiation activity with gentamicin in words ([1]; compound used at 8 μg/mL): Moderate
- Combination MIC vs ATCC29213 (MIC of gentamicin in combination with the compound) ([1]; compound used at 8 μg/mL): 0.12

Molecule: CCCCNC(C)[C@H]1CC[C@H]2[C@@H]3CC[C@H]4C[C@@H](O)CC[C@]4(C)[C@H]3CC[C@]12C.Cl (mixture of isomers) [Compound 48, 3β-Hydroxy-20-butylamino-5α-pregnane hydrochloride]
- MIC [2, 9]: 4 to 8 µg/mL
- Activity of the compounds against the SCV strain (class) [2]: Moderate (MIC = 0.5-4 μg/mL: moderate activity)
- potentiaton fold with gentamicin [1, 8]: 8 x
- potentiation / synergy with aminoglycoside (gentamicin) in words [1]: strong or moderate synergy
- MIC [1, 10]: 64 µg/mL
- potentiation activity with gentamicin in words ([1]; compound used at 8 μg/mL): High
- Combination MIC vs ATCC29213 (MIC of gentamicin in combination with the compound) ([1]; compound used at 8 μg/mL): 0.06
